Data published in paper PMC10257182, “Discovery of senolytics using machine learning” (Nature Communications, 2023).
Where “and” joins values, the source holds several entries; their conditions need not be identical. Equal values may be shown once.

Columns and labels:
Format in all cases: cell-based, human
[1] = test system: caspase 3/7 activity in senescent IMR90 ER:RAS cells; test: Caspase 3/7 activity assay; design: Caspase 3/7 activity time course (SUP FIG 9F) / Caspase 3/7 activity time course (SUP FIG 9F exp not shown): unit not given here; details: for Caspase 3/7 activity time course (SUP FIG 9F) / Caspase 3/7 activity time course (SUP FIG 9F exp not shown): ER:RAS cells; for Caspase 3/7 activity time course (SUP FIG 9F exp not shown): second experiment, data not shown
Experimental: IMR90 ER:STOP and IMR90 ER:RAS cells were cultured with 100 nM 4-OHT for 5 days. Cell were then plated in a multiwell plate at high density. Once cells were attached, Caspase 3/7 probe (C10423 Invitrogen) and senolytic drugs, oleandrin, ouabain and periplocin at 10 nM, were added to the media and cultured for 36 h. Time lapse imaging was recorded every hour on a Leica AF6500 microscope (10x). ImageJ 1.53k was used for positive cell counting.

[2] = test system: A549 cells treated with 100 μM etoposide; test: Cell survival assay using crystal violet staining, TIS, senescent cells; details: Etoposide-treated (senescent) cells; Control DMSO = 100; single replicates (SUP FIG 9E)
Experimental: (§1) Equal numbers of control and senescent cells were plated at high density on multiwell plates just before senolytic treatment addition. After treatment, cells were fixed on 0.5% glutaraldehyde (Sigma) and then dried at RT overnight. Then, wells were stained with crystal violet solution for 3 h, washed and dried. Once they were completely dry, the plates were scanned for records. Quantification was performed extracting the staining with 1% acetic acid and measuring the final solution by absorbance at 595 nm. […]
(§2) cells per condition is indicated. (d) Cell survival assay measuring the senolytic effect in lung cancer senescent cells. The panels show a representative crystal violet staining of tissue culture dishes of confluent A549 cells treated with 100 μM etoposide and control A549 cells, all treated with 10 nM oleandrin, ouabain and periplocin, and DMSO as vehicle control for 72 hours as indicated. (e) Graph representing the cell survival by quantification of the crystal violet staining of the experiment described in (d), as described in Methods. Data represented as individual datapoints, and bars and error bars representing the mean ± SEM of 14 independent experiments. Statistical analysis was performed using a one-way ANOVA (Tukey’s test) for multiple comparisons. […]
(§3) Scale bars represent 100 μm. ns = not significant, * = p < 0.05, ** = p < 0.01, *** = p < 0.001, **** = p < 0.0001. Source data are provided as a Source Data file.

[3] = test system: IMR90 cells at passage 13 (control); details: FIG 4C; Young (control) cells; mean of n=12 as fraction of Young DMSO = 1
From the text: (§4) IMR90 (CCL-186) human foetal lung fibroblasts and A549 (CCL-185) human lung adenocarcinoma cells were obtained from the American Type Culture Collection (ATCC, Manassas, VA). The cell lines were confirmed to be mycoplasma negative (Lonza MycoAlert, cat #LT07-118). IMR90 ER:RAS is a derivative of IMR90 cells expressing a switchable version of oncogenic H-Ras[84]. IMR90 ER:RAS and A549 cells were maintained in Dulbecco’s Modified Eagle Medium (DMEM, ThermoFisher) supplemented with foetal bovine serum (10%), L-glutamine (2 mM, ThermoFisher), and antibiotic-antimycotic solution (1%, ThermoFisher) and incubated under standard tissue culture conditions (37 °C and 5% CO2). For induction of the senescent phenotype, IMR90-ER:RAS cells were cultured in hydroxytamoxifen (4-OHT) (Sigma) added media at 100 nM final concentration. IMR90 were kept in culture for over 27 passages for replicative senescence. Cells were tested for mycoplasma on a regular basis.
(§5) Equal numbers of control and senescent cells were plated at high density on multiwell plates just before senolytic treatment addition. After treatment, cells were fixed on 0.5% glutaraldehyde (Sigma) and then dried at RT overnight. Then, wells were stained with crystal violet solution for 3 h, washed and dried. Once they were completely dry, the plates were scanned for records. Quantification was performed extracting the staining with 1% acetic acid and measuring the final solution by absorbance at 595 nm.

[4] = test system: IMR90 cells at passage 27 (replicative senescence); test: Cell survival assay using crystal violet staining, replicative senescence; design: % Cell Survival: concentration or dose not given beside the values; details: FIG 4C; Replicative Senescence (RS) cells; individual replicate values, Control DMSO = 100
From the text: as §4, §5

control A549 cells = test: Cell survival assay using crystal violet staining, TIS, control cells; details: Control (no etoposide) cells; Control DMSO = 100; single replicates (SUP FIG 9E)
Experimental: as §1, §2, §3

[5] = test system: proliferating IMR90 cells; test: BrdU incorporation proliferation assay
Experimental: 5-bromo-2′-deoxyuridine (BrdU) incorporation was used to measure the number of cells actively replicating DNA. Cells were incubated with 10 μM BrdU (85811, Sigma) for 18 h. After that, cells were fixed with 4% Paraformaldehyde, permeabilised, blocked and then stained for immunofluorescence using BrdU primary antibody (555627 BD Pharmigen), Alexa fluor secondary for detection, and DAPI staining for cell counting. Acquisition was done with a Nikon TI2 microscope and analysis was performed with ImageJ for cell counting.

[6] = test system: A549 cells treated with 100 μM etoposide; test: Cell survival assay using crystal violet staining, TIS, senescent cells; details: fraction of Control DMSO = 1, n 15
[7] = test system: senescent IMR90 ER:RAS cells; test: Cell survival assay using crystal violet staining, OIS, senescent cells; design: % Cell Survival: concentration or dose not given beside the values
Experimental: as §5

[8] = test system: Na+/K+ ATPase pump (intracellular K+) in IMR90 cells at passage 27; test: Intracellular K+ determination with Asante staining, replicative senescence; details: Replicative Senescence cells
Experimental: (§6) Cells were cultured for control and senescent phenotype and then treated with the senolytics oleandrin, ouabain and periplocin at 10 nM for 72 h. Asante (Asante Potassium Green-2 AM, abcam ab142806) was added to the culture 30 min before fixation, following manufacturer instructions. DAPI staining was done before image acquisition on Nikon TI2 microscope (20x). Image analysis was performed using ImageJ 1.53k for setting intensity threshold and measuring mean intensity.

[9] = test system: Na+/K+ ATPase pump (intracellular K+) in senescent IMR90 ER:RAS cells; test: Intracellular K+ determination with Asante staining, OIS; details: FIG 4E, ER:RAS cells
Experimental: as §6

CO[C@H]1C[C@H](O[C@H]2CC[C@]3(C)[C@H]4CC[C@]5(C)[C@@H](C6=CC(=O)OC6)CC[C@]5(O)[C@@H]4CC[C@]3(O)C2)O[C@H](C)[C@H]1O[C@@H]1O[C@H](CO)[C@@H](O)[C@H](O)[C@H]1O [Periplocin, periplocin]
Caspase 3/7 activity time course (SUP FIG 9F) ([1]; 01:00:00 hours): 1.7
Caspase 3/7 activity time course (SUP FIG 9F exp not shown) ([1]; 01:00:00 hours): 0.05
Caspase 3/7 activity time course (SUP FIG 9F) ([1]; 05:00:00 hours): 2
Caspase 3/7 activity time course (SUP FIG 9F exp not shown) ([1]; 05:00:00 hours): 0.2
Caspase 3/7 activity time course (SUP FIG 9F) ([1]; 10:00:00 hours): 2.7
Caspase 3/7 activity time course (SUP FIG 9F exp not shown) ([1]; 10:00:00 hours): 1.2
Caspase 3/7 activity time course (SUP FIG 9F) ([1]; 15:00:00 hours): 2.7
Caspase 3/7 activity time course (SUP FIG 9F exp not shown) ([1]; 15:00:00 hours): 1.2
Caspase 3/7 activity time course (SUP FIG 9F) ([1]; 20:00:00 hours): 3
Caspase 3/7 activity time course (SUP FIG 9F exp not shown) ([1]; 20:00:00 hours): 2.55
Caspase 3/7 activity time course (SUP FIG 9F) ([1]; 1 day, 1:00:00): 3.5
Caspase 3/7 activity time course (SUP FIG 9F exp not shown) ([1]; 1 day, 1:00:00): 3.9
Caspase 3/7 activity time course (SUP FIG 9F) ([1]; 1 day, 6:00:00): 4
Caspase 3/7 activity time course (SUP FIG 9F exp not shown) ([1]; 1 day, 6:00:00): 6.15
Caspase 3/7 activity time course (SUP FIG 9F) ([1]; 1 day, 11:00:00): 4.8
Caspase 3/7 activity time course (SUP FIG 9F exp not shown) ([1]; 1 day, 11:00:00): 8.35
Casp3/7 activity (percentage of green fluorescent cells) ([1]; ER:RAS, 100 nM 4OHT, 10 nM compound, 35 h): 6.2%
% Cell Survival [2]: 78.5% and 85.2% and 87.1% and 66.7% and 80.4% and 88.8% and 86.5% and 120% and 114.9% and 68.8% and 88.3% and 87.7% and 111.9% and 81.2%
Mean (cell survival, Tukey test details) [3]: 0.8921
% Cell Survival [4]: 127.6% and 99.2% and 95.4% and 100.9% and 115.7% and 129.6% and 84.9% and 94.7% and 133.6% and 88.7% and 125.7% and 118.8%
% Cell Survival (control A549 cells): 90% and 112.2% and 107.2% and 111% and 106.6% and 104.9% and 102.9% and 93.8% and 98.6% and 110.6% and 109.7% and 108.4% and 94.2% and 93.9%
% BrdU positive cells, mean (Test details, Mean 2) ([5]; IMR90 cells, n 4): 68.52%
% BrdU positive cells ([5]; IMR90 cells, single replicates (SUP FIG 9G)): 63.29% and 64.13% and 67.53% and 79.11%
proliferation by BrdU incorporation, in words ([5]; proliferating IMR90 cells, 10 nM): none of the cardiac glycosides induced unwanted changes in proliferation
Cell survival, mean (Test details, Mean 2) [6]: 0.873
% Cell Survival ([7]; FIG 4B, ER:RAS cells, individual replicate values, ER:STOP DMSO = 100): 119.4% and 103.3% and 90.2% and 103.2% and 120.1% and 97.6% and 95% and 114.9% and 93.3% and 103% and 92.4%
Mean (cell survival, Tukey test details) ([7]; FIG 4B, ER:RAS cells, mean of n=12 as fraction of STOP DMSO = 1): 1.03
cytotoxic activity / cellular content (crystal violet), in words ([7]; IMR90-ER:RAS cells undergoing OIS, 10 nM, 72 h): no cytotoxic activity
Asante Mean intensity ([8]; individual replicate values): 152.4 and 152.1 and 153.1 and 152.9 and 152.7
Asante Mean intensity, group mean (Test details, Mean 2) ([8]; mean of n=6): 152.6
Asante Mean intensity ([9]; individual replicate values): 75.6 and 74 and 75.4 and 73.1 and 78 and 73 and 65.7
Mean (Asante Mean intensity, Tukey test details) ([9]; mean of n=7): 73.54
